Assay results: patent publication US20250312469A1 (CANGET BIOTEKPHARMA, priority 2024, published 2025)

Legend:
[1] = biological target: T1, ABCG2/BCRP (Homo sapiens, UniProt Q9UNQ0); test: in vitro; details: for recovery at 120 min, 1 µM: Caco-2, pH 7.4, Recovery (%)
T1 sequence (Q9UNQ0 1-655): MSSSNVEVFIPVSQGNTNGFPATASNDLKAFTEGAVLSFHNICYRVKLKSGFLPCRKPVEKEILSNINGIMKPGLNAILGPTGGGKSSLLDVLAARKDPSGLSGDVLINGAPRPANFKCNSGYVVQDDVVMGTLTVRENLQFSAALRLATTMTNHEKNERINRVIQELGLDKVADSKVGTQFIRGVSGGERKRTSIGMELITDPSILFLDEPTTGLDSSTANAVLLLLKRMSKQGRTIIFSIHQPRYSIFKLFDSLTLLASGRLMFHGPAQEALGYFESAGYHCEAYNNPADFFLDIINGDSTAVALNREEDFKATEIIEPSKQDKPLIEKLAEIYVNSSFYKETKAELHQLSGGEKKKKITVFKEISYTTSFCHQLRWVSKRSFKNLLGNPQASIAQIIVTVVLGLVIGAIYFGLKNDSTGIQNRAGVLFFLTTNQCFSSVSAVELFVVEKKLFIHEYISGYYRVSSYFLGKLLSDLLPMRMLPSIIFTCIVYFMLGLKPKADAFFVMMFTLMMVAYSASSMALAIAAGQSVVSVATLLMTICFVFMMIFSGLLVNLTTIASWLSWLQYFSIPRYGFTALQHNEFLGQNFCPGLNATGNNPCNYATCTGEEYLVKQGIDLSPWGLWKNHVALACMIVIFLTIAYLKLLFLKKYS

[2] = PK after single oral dose in tumor bearing mice
[3] = in vitro; details: for microsomal CLint at 0.5 μM / half-life at 0.5 μM: both; for microsomal CLint at 0.5 μM: s9, CLint (intrinsic clearance); for microsomal CLint at 0.5 μM / half-life at 0.5 μM / % Remaining of Initial (n = 1): human liver S9 fraction; for half-life at 0.5 μM: s9, Half-life (min)
[4] = biological target: DDX5 (Homo sapiens, UniProt P17844); test: FL118 affinity column purification and mass spectrometry; type: binding; details: SW620 protein lysates
DDX5, sequence (P17844 whole entry): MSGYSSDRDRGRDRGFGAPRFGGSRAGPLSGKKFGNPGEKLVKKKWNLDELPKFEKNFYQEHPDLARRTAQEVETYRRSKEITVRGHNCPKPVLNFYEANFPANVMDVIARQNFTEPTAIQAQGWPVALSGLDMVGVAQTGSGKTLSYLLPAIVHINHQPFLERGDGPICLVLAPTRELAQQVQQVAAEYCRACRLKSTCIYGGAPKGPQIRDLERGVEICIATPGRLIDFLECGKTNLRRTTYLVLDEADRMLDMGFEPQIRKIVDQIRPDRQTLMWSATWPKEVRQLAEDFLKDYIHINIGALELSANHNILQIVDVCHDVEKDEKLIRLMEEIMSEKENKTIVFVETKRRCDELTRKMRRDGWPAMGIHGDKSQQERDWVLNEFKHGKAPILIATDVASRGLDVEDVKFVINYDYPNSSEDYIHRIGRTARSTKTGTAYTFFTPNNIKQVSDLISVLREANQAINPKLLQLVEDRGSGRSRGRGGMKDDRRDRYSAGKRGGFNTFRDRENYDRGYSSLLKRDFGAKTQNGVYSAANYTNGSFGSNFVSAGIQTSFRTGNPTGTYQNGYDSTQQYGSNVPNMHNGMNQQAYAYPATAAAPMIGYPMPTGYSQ
Description: The process includes many experimental steps as described below.
Affinity purification column setup: (i) transfer the control resin slurry and the FL118-coupled resin slurry into two columns, respectively; (ii) allow resin to settle and then open the bottom cap to allow the solution to flow out to drain all the reaction solution; (iii) washing the column with 2 ml CB, and then with 2 ml ultrapure water/DMSO solution (75:25). […] Then additional 3×4 ml tris washing buffer (0.1 M Tris, pH 8.0).
After extensive washing with washing buffer, the proteins binding on the column were eluted with 8M urea buffers.
After digestion, the tryptic products were extracted twice and dried; the dried peptides were then reconstituted in 10 μL of 2% (v/v) formic acid for analysis with Liquid Chromatography Tandem Mass Spectrometry (LC-ESI-MS/MS). LC-ESI-MS/MS analysis of peptides was performed using a nano-ACQUITY UPLC system (Waters Corporation, Milford, MA) coupled through a nano-spray ionization source to a Quadrupole-Time-of-Flight (Q-ToF) Premier mass spectrometer (Micromass, Waters Corporation). […] The criteria used to identify the proteins included ion scores equal to or greater than the threshold significant ion score ([…]), and similarity between the observed protein molecular mass from gel electrophoresis and the calculated molecular mass provided in the database. […]

[5] = system: LNCaP, DU145 and PC-3 cells; test: MTT cell growth/viability assay in PCa cells; type: cell-based, human
Description: MTT assay for determining cancer cell growth viability: The MTT assay was described previously (13). […] Briefly, ˜2500 viable cells with or without genetic manipulation were plated in each well in 96-well plates. […] MTT, a colorimetric substrate, was then added to a final concentration of 0.4 mg/mL to each well. Cells in 96-well plates were further incubated in a 5% CO2 incubator at 37° C. for 4 h, and then the medium was aspirated. The MTT metabolic product formazan was solubilized by adding 200 μl of DMSO to each well. Absorbance in the relevant wells was measured at 570 nm using an Ultra Microplate Reader (Bio-Tek Instruments).

[6] = biological target: T1, ABCG2/BCRP; details: Caco-2; without and with Ko143
[7] = HT29 tumor, single oral dose […]
[8] = SW620 tumor, single oral dose […]
[9] = mouse plasma, single oral dose […]

CCC1(O)C(=O)OCc2c1cc1n(c2=O)Cc2cc3cc4c(cc3nc2-1)OCO4 (stereo not drawn) [FL118]
Papp A→B at 120 min, 1 μM ([1]; Caco-2, pH 7.4, Papp AVG, Caco-2, A-to-B, first FL118 entry (without Ko143)): 10.7 ×10⁻⁶ cm/s | Papp A→B at 120 min, 1 μM ([1]; Caco-2, pH 7.4, Papp R1, Caco-2, A-to-B, first FL118 entry (without Ko143)): 11.2 ×10⁻⁶ cm/s | Papp A→B at 120 min, 1 μM ([1]; Caco-2, pH 7.4, Papp R2, Caco-2, A-to-B, first FL118 entry (without Ko143)): 10.3 ×10⁻⁶ cm/s | recovery at 120 min, 1 µM ([1]; Caco-2, A-to-B, first FL118 entry (without Ko143)): 57% | recovery at 120 min, 1 µM ([1]; Caco-2, A-to-B, second FL118 entry (presumably with Ko143)): 57% | recovery at 120 min, 1 µM ([1]; Caco-2, B-to-A, second FL118 entry (presumably with Ko143)): 66% | Cl [2, 7]: 8,440 g/hr/kg | Tmax [2, 7]: 1.00 h | VD [2, 7]: 51,700 g/kg | t1/2 [2, 7]: 4.24 h | Cl ([2]; HT29 tumor, p.o. […]): 8,440 g/hr/kg | VD ([2]; HT29 tumor, p.o. […]): 51,700 g/kg | Cl [2, 8]: 6,710 g/hr/kg | Tmax [2, 8]: 1.00 h | VD [2, 8]: 28,900 g/kg | t1/2 [2, 8]: 2.99 h | Cl ([2]; SW620 tumor, p.o. […]): 6,710 g/hr/kg | VD ([2]; SW620 tumor, p.o. […]): 28,900 g/kg | concentration that can be reached in cancer cells ([2]; from the PK studies): ≤ 25 nM | Cl [2, 9]: 17,000 mL/hr/kg | Tmax [2, 9]: 0.500 h | VD [2, 9]: 126,000 mL/kg | t1/2 [2, 9]: 5.12 h | FL118 concentration, individual mice ([2]; plasma, 1.0 h, single oral dose […]): 19.1 ng/mL | FL118 concentration, individual mice ([2]; plasma, 4.0 h, single oral dose […]): 4.78 ng/mL | Cl ([2]; plasma, p.o. […]): 17,000 mL/hr/kg | VD ([2]; plasma, p.o. […]): 126,000 mL/kg | microsomal CLint at 0.5 μM ([3]; human, calculated (in parentheses)): 11.1 µL/min/mg | microsomal CLint at 0.5 μM ([3]; human, bound): < 11.6 µL/min/mg | half-life at 0.5 μM ([3]; human, calculated (in parentheses), calculated half-life longer than the experiment): 1.05 h | half-life at 0.5 μM ([3]; human, expressed as > the longest incubation time): > 1 h | % Remaining of Initial (n = 1) ([3]; 0 min): 100% | % Remaining of Initial (n = 1) ([3]; 10 min): 82% | % Remaining of Initial (n = 1) ([3]; 20 min): 73% | % Remaining of Initial (n = 1) ([3]; 30 min): 69% | % Remaining of Initial (n = 1) ([3]; 60 min): 52% | half-life ([3]; human, s9): long half-life | binding to DDX5 (affinity purification, MS) [4]: physically binds | cell growth inhibition in DDX5 KO DU145 cells ([5]; 72h MTT): significantly increased resistance to FL118 treatment | cell growth inhibition, DU145 vs LNCaP and PC-3 ([5]; 72h MTT): higher sensitivity to FL118-induced cell growth inhibition | cell growth inhibition with USP2a overexpression ([5]; LNCaP, DU145, 72 h): enhances FL 118-mediated inhibition of PCa cell growth | BCRP Substrate Classification [6]: Negative (ER≥2.0 without Ko143, and reduced by <50% with Ko143: Negative)
